Source: US8927559B2, “Quinazolinone-type compounds as CRTH2 antagonists” (Merck Sharp & Dohme Corp., priority 2010, dated 2015)
Read-outs that look alike come from different tables or passages of the source.

Biological target: T1, CRTH2 receptor (hCRTH2) (Homo sapiens, UniProt Q9Y5Y4)
T1 construct: expressed in transfected cells; host or cells: HEK cells (HEK-hCRTH2 cell line), membranes
T1 sequence (Q9Y5Y4 1-395): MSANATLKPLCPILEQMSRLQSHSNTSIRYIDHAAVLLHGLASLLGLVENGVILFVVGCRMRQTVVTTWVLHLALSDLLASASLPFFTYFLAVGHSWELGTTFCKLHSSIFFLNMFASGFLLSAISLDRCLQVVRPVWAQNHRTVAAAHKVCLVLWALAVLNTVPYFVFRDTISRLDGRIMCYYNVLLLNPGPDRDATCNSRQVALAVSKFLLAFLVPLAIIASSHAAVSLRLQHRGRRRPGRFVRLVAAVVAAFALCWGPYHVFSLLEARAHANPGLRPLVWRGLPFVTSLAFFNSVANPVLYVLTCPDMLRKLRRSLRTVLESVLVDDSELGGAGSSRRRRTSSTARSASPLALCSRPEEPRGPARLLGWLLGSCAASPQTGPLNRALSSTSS
Test: Radioligand binding assay ([3H]PGD2 competition, membranes of HEK-hCRTH2 cell line)
Conditions: 3.0 nM [3H]PGD2, HEK-hCRTH2 membranes, 60 min, room temperature
Procedure, shortened: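 Membranes (8-20 μg protein) from HEK cells expressing human CRTH2 were incubated with [3H]PGD2 and competitor in 1% DMSO for 60 min at room temperature. Non-specific binding was defined with excess PGD2. Bound radioactivity was separated by filtration and counted by melt-on scintillation.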

SMILES	Ki (read-out: Ki) [µM]	Ki (Ki) [µM]
CC(CCCc1nc2cc(C3=NOC(C)(c4nc5ccccc5o4)C3)ccc2c(=O)n1-c1ccc(F)cc1)C(=O)O (stereo not drawn) [Example 108]	≤ 0.01	–
CC(CCCc1nc2cc(C3=NOC(C)([C@H](O)c4ccccc4)C3)ccc2c(=O)n1-c1ccc(F)cc1)C(=O)O (stereo partly drawn) [Example 109]	0.01 to 0.05	–
CC(CCCc1nc2cc(C3=NOC(C)([C@@H](O)c4ccccc4)C3)ccc2c(=O)n1-c1ccc(F)cc1)C(=O)O (stereo partly drawn) [Example 110]	0.01 to 0.05	–
N#CC1CC2(CC(c3ccc4c(=O)n(-c5ccc(F)cc5)c(CCCCC(=O)O)nc4c3)=NO2)C1 (stereo not drawn) [Example 112]	≤ 0.01	–
CC1(c2ccc(C#N)cc2)CC(c2ccc3c(=O)n(-c4ccc(Cl)cc4)c(CCCCC(=O)O)nc3c2)=NO1 (stereo not drawn) [Example 113]	≤ 0.01	–
CC1(c2ccc(C#N)cc2)CC(c2ccc3c(=O)n(-c4ccc(F)cc4)c(CCCCC(=O)O)nc3c2)=NO1 (stereo not drawn) [Example 114]	≤ 0.01	–
CC1(c2nc3ccccc3o2)CC(c2ccc3c(=O)n(-c4ccc(Cl)cc4)c(CCCCC(=O)O)nc3c2)=NO1 (stereo not drawn) [Example 116]	≤ 0.01	–
O=C(O)CCCCc1nc2cc(C3=NOC(c4ccccc4)(c4ccccc4)C3)ccc2c(=O)n1-c1ccc(F)cc1 [Example 117]	–	0.01 to 0.05
CC1(c2cccc(C#N)c2)CC(c2ccc3c(=O)n(-c4ccc(F)cc4)c(CCCCC(=O)O)nc3c2)=NO1 (stereo not drawn) [Example 118]	–	0.01 to 0.05
CC1(c2cccc(C#N)c2)CC(c2ccc3c(=O)n(-c4ccc(F)cc4)c(CCCCC(=O)O)nc3c2)=NO1 (stereo not drawn) [Example 119]	–	≤ 0.01
CC1(c2ccc(Cl)cc2)CC(c2ccc3c(=O)n(-c4ccc(F)cc4)c(CCCCC(=O)O)nc3c2)=NO1 (stereo not drawn) [Example 120]	–	≤ 0.01
CC1(c2ccc(F)cc2)CC(c2ccc3c(=O)n(-c4ccc(F)cc4)c(CCCCC(=O)O)nc3c2)=NO1 (stereo not drawn) [Example 122]	–	≤ 0.01
CC1(c2cc(F)cc(F)c2)CC(c2ccc3c(=O)n(-c4ccc(F)cc4)c(CCCCC(=O)O)nc3c2)=NO1 (stereo not drawn) [Example 125]	–	≤ 0.01
CC1(c2cc(F)cc(F)c2)CC(c2ccc3c(=O)n(-c4ccc(F)cc4)c(CCCCC(=O)O)nc3c2)=NO1 (stereo not drawn) [Example 126]	–	0.01 to 0.05
CC1(C(O)c2ccc(C#N)cc2)CC(c2ccc3c(=O)n(-c4ccc(F)cc4)c(CCCCC(=O)O)nc3c2)=NO1 (stereo not drawn) [Example 132]	0.01 to 0.05	–
O=C(O)CCCCc1nc2cc(C3=NOC(c4nc5ccc(Cl)cc5s4)C3)ccc2c(=O)n1-c1ccc(F)cc1 (stereo not drawn) [Example 151]	≤ 0.01	–

SMILES	Ki (read-out: Ki) [µM]	Ki (Ki) [µM]
O=C(O)CCCCc1nc2cc(C3=NO[C@H](c4nc5ccc(Cl)cc5s4)C3)ccc2c(=O)n1-c1ccc(F)cc1 [Example 154]	≤ 0.01	–
O=C(O)CCCCc1nc2cc(C3=NO[C@@H](c4nc5ccc(Cl)cc5s4)C3)ccc2c(=O)n1-c1ccc(F)cc1 [Example 155]	≤ 0.01	–
O=C(O)C1CC(Cc2nc3cc(-c4cc(Cc5ccc(F)cc5)on4)ccc3c(=O)n2-c2ccc(F)cc2)C1 (stereo not drawn) [Example 156]	0.01 to 0.05	–
CC1(c2nc3ccc(Cl)cc3o2)CC(c2ccc3c(=O)n(-c4ccc(F)cc4)c(CCCCC(=O)O)nc3c2)=NO1 (stereo not drawn) [Example 158]	≤ 0.01	–
CC1(c2nc3cc(Cl)ccc3o2)CC(c2ccc3c(=O)n(-c4ccc(F)cc4)c(CCCCC(=O)O)nc3c2)=NO1 (stereo not drawn) [Example 159]	≤ 0.01	–
CC1(c2nc3cc(F)ccc3o2)CC(c2ccc3c(=O)n(-c4ccc(F)cc4)c(CCCCC(=O)O)nc3c2)=NO1 (stereo not drawn) [Example 161]	≤ 0.01	–
C[C@@]1(c2nc3cc(F)ccc3o2)CC(c2ccc3c(=O)n(-c4ccc(F)cc4)c(CCCCC(=O)O)nc3c2)=NO1 [Example 163]	≤ 0.01	–
C[C@]1(c2nc3cc(F)ccc3o2)CC(c2ccc3c(=O)n(-c4ccc(F)cc4)c(CCCCC(=O)O)nc3c2)=NO1 [Example 164]	0.01 to 0.05	–
CC1(C(=O)Nc2cc(Cl)c(Cl)cc2O)CC(c2ccc3c(=O)n(-c4ccc(F)cc4)c(CCCCC(=O)O)nc3c2)=NO1 (stereo not drawn) [Example 165]	0.01 to 0.05	–
CC1(C(=O)Nc2cc(F)ccc2O)CC(c2ccc3c(=O)n(-c4ccc(F)cc4)c(CCCCC(=O)O)nc3c2)=NO1 (stereo not drawn) [Example 166]	≤ 0.01	–
CC1(c2nc3ccc(F)cc3o2)CC(c2ccc3c(=O)n(-c4ccc(F)cc4)c(CCCCC(=O)O)nc3c2)=NO1 (stereo not drawn) [Example 169]	≤ 0.01	–
CC1(c2nc3ccccc3s2)CC(c2ccc3c(=O)n(-c4ccc(F)cc4)c(CCCCC(=O)O)nc3c2)=NO1 (stereo not drawn) [Example 170]	–	≤ 0.01
C[C@]1(c2nc3ccc(Cl)cc3o2)CC(c2ccc3c(=O)n(-c4ccc(F)cc4)c(CCCCC(=O)O)nc3c2)=NO1 [Example 172]	≤ 0.01	–
CC1(c2nc3ccc(F)cc3[nH]2)CC(c2ccc3c(=O)n(-c4ccc(F)cc4)c(CCCCC(=O)O)nc3c2)=NO1 (stereo not drawn) [Example 174]	≤ 0.01	–
CC1(c2nc3ccc(Cl)cc3[nH]2)CC(c2ccc3c(=O)n(-c4ccc(F)cc4)c(CCCCC(=O)O)nc3c2)=NO1 (stereo not drawn) [Example 175]	≤ 0.01	–

Further lines, with some results ahead:

Ki (read-out: Ki) [µM]	SMILES	Ki (Ki) [µM]
≤ 0.01	O=C(O)CCCCc1nc2cc(-c3cc(CN4CCc5ccccc54)on3)ccc2c(=O)n1-c1ccc(F)cc1 [Example 106]	–
≤ 0.01	O=C(O)CCCCc1nc2cc(-c3cc(Cn4ccccc4=O)on3)ccc2c(=O)n1-c1ccc(F)cc1 [Example 107]	–
≤ 0.01	O=C(O)CCCCc1nc2cc(-c3cc(Cn4nnc5ccccc54)on3)ccc2c(=O)n1-c1ccc(F)cc1 [Example 111]	–
≤ 0.01	CC1(c2ccc(F)c(F)c2)CC(c2ccc3c(=O)n(-c4ccc(F)cc4)c(CCCCC(=O)O)nc3c2)=NO1 (stereo not drawn) [Example 124]	–
0.01 to 0.05	O=C(O)CCCCc1nc2cc(C3=NOC(c4ccccc4)(C(F)(F)F)C3)ccc2c(=O)n1-c1ccc(F)cc1 (stereo not drawn) [Example 127]	–
≤ 0.01	C=C(c1ccccc1)c1cc(-c2ccc3c(=O)n(-c4ccc(F)cc4)c(CCCCC(=O)O)nc3c2)no1 [Example 128]	–
≤ 0.01	CC(O)(c1cc(-c2ccc3c(=O)n(-c4ccc(F)cc4)c(CCCCC(=O)O)nc3c2)no1)c1ccccc1F (stereo not drawn) [Example 129]	–
≤ 0.01	CC(O)(c1cccc(F)c1)c1cc(-c2ccc3c(=O)n(-c4ccc(F)cc4)c(CCCCC(=O)O)nc3c2)no1 (stereo not drawn) [Example 130]	–
0.01 to 0.05	O=C(O)CCCCc1nc2cc(-c3cc(C(O)(c4ccccc4)C(F)(F)F)on3)ccc2c(=O)n1-c1ccc(F)cc1 (stereo not drawn) [Example 131]	–
≤ 0.01	CC(c1ccccc1)c1cc(-c2ccc3c(=O)n(-c4ccc(F)cc4)c(CCCCC(=O)O)nc3c2)no1 (stereo not drawn) [Example 133]	–
≤ 0.01	C[C@@]1([C@H](O)c2cccc(C#N)c2)CC(c2ccc3c(=O)n(-c4ccc(F)cc4)c(CCCCC(=O)O)nc3c2)=NO1 [Example 136]	–
≤ 0.01	C[C@@]1([C@@H](O)c2cccc(C#N)c2)CC(c2ccc3c(=O)n(-c4ccc(F)cc4)c(CCCCC(=O)O)nc3c2)=NO1 [Example 137]	–
0.01 to 0.05	C[C@]1([C@H](O)c2cccc(C#N)c2)CC(c2ccc3c(=O)n(-c4ccc(F)cc4)c(CCCCC(=O)O)nc3c2)=NO1 [Example 138]	–
0.01 to 0.05	O=C(O)CCCCc1nc2cc(C3=NOC4(CCc5ccccc54)C3)ccc2c(=O)n1-c1ccc(F)cc1 (stereo not drawn) [Example 143]	–
0.01 to 0.05	O=C(O)CCCCc1nc2cc(C3=NOC4(CCc5c(F)cccc54)C3)ccc2c(=O)n1-c1ccc(F)cc1 (stereo not drawn) [Example 144]	–
≤ 0.01	O=C(O)CCCCc1nc2cc(C3=NOC4(C3)Cc3ccccc3C4)ccc2c(=O)n1-c1ccc(F)cc1 [Example 145]	–
0.01 to 0.05	CO[C@@H](c1ccccc1)c1cc(-c2ccc3c(=O)n(-c4ccc(F)cc4)c(C(C)CCCC(=O)O)nc3c2)no1 (stereo partly drawn) [Example 146]	–
≤ 0.01	CO[C@@H](c1ccccc1)c1cc(-c2ccc3c(=O)n(-c4ccc(F)cc4)c(CCCCC(=O)O)nc3c2)no1 [Example 147]	–
≤ 0.01	CO[C@H](c1ccccc1)c1cc(-c2ccc3c(=O)n(-c4ccc(F)cc4)c(C(C)CCCC(=O)O)nc3c2)no1 (stereo partly drawn) [Example 148]	–
≤ 0.01	CO[C@H](c1ccccc1)c1cc(-c2ccc3c(=O)n(-c4ccc(F)cc4)c(CCCCC(=O)O)nc3c2)no1 [Example 149]	–
≤ 0.01	O=C(O)CCCCc1nc2cc(C3=NOC(c4nc5ccc(Cl)cc5o4)C3)ccc2c(=O)n1-c1ccc(F)cc1 (stereo not drawn) [Example 150]	–
0.01 to 0.05	O=C(O)CCCCc1nc2cc(C3=NO[C@H](c4nc5ccc(Cl)cc5o4)C3)ccc2c(=O)n1-c1ccc(F)cc1 [Example 152]	–
≤ 0.01	O=C(O)CCCCc1nc2cc(C3=NO[C@@H](c4nc5ccc(Cl)cc5o4)C3)ccc2c(=O)n1-c1ccc(F)cc1 [Example 153]	–
0.01 to 0.05	O=C(O)CCCCc1nc2cc(-c3cc(-c4ccc(Br)cc4)on3)ccc2c(=O)n1-c1ccc(F)cc1 [Example 157]	–
≤ 0.01	CC1(c2nc3ccccc3[nH]2)CC(c2ccc3c(=O)n(-c4ccc(F)cc4)c(CCCCC(=O)O)nc3c2)=NO1 (stereo not drawn) [Example 160]	–
≤ 0.01	CC1(c2nc3ccccn3c2Cl)CC(c2ccc3c(=O)n(-c4ccc(F)cc4)c(CCCCC(=O)O)nc3c2)=NO1 (stereo not drawn) [Example 162]	–
≤ 0.01	C[C@@]1(c2nc3ccccn3c2Cl)CC(c2ccc3c(=O)n(-c4ccc(F)cc4)c(CCCCC(=O)O)nc3c2)=NO1 [Example 167]	–
≤ 0.01	CC1(c2cn3ccccc3n2)CC(c2ccc3c(=O)n(-c4ccc(F)cc4)c(CCCCC(=O)O)nc3c2)=NO1 (stereo not drawn) [Example 171]	–
≤ 0.01	C[C@]1(c2nc3ccccc3[nH]2)CC(c2ccc3c(=O)n(-c4ccc(F)cc4)c(CCCCC(=O)O)nc3c2)=NO1 [Example 176]	–
